Patent US20260285898A1, “SAPONIN DERIVATIVES AS ADJUVANTS AND PHOTOAFFINITY PROBES” (ASOCIACIÓN CENTRO DE INVESTIGACIÓN COOPERATIVE EN …, priority 2023, published 2026)

Test: Initial toxicity assessment in mice by median weight loss after injection
Conditions: monitored after each injection (1st, 2nd and 3rd booster dose); s.c., saponin 20 μg/mouse with OVA 10 μg/mouse; FIG. 1
Description: Groups of five mice (C57BL/6, female, 6-8 weeks old) were vaccinated subcutaneously three times […] (days 0, 14, and 28) with endotoxin-free OVA (EndoFit™ Ovalbumin, Invitrogen) (10 μg/mouse) in phosphate-buffered saline (PBS, 100 μL) either alone (no-adjuvant control group) or with the synthetic saponins (20 μg/mouse). To analyze the antibody responses over time, mice were bled via the submandibular vein at the indicated pre- (day −1) and post-vaccination timepoint (day 21), and by cardiac puncture at the experimental endpoint (day 35). Blood was collected in BD Microtainer® tubes (Clot Activator/SST™ Gel) and centrifuged at 7500 g for 10 min, after which serum was harvested and stored at −20° C. until further analysis.
As a standard initial overall assessment of the potential toxicity of the saponins, in addition to visual inspection for potential signs of discomfort, the weight loss of each group of mice was monitored before and after each immunization. The median percentage weight change at different timepoints post-injection was determined and analyzed.
Mouse weight loss was monitored after each injection (1st, 2nd and 3rd (booster dose)).

CC1OC(OC2C(OC(=O)C34CCC(C)(C)CC3C3=CCC5C6(C)CCC(OC7OC(C(=O)O)C(O)C(OC8OCC(O)C(O)C8O)C7OC7OC(CO)C(O)C(O)C7O)C(C)(C=O)C6CCC5(C)C3(C)CC4O)OC(CO)C(NC(=O)CCCCCNC(=O)c3ccc(C(=O)c4ccc(C(=O)NCCOCCOCCOCCOCCOCCNC(=O)CCCCC5SCC6NC(=O)NC65)cc4)cc3)C2O)C(O)C(O)C1OC1OCC(O)C(O)C1O (stereo not shown) [BTS-25-BP]
Mouse weight loss (toxicity): about 2%
